Format in all cases: physicochemical
Data set [1] is described as follows: xanthommatin solubility in water-based polyurethane. As to conditions: pigment added as suspension in water or solution in MES buffer; Rust-Oleum 6711; judged by absence of solid after centrifugation. How it is done:
Evaluation of xanthommatin solubility in water-based polyurethane: Two quantities of solid xanthommatin, corresponding to either 0.2 or 1.6 mg of xanthommatin, were dissolved or dispersed in 0.3 mL of MES buffer (0.1 M, pH 5.5) or deionized water, and added to 0.27 g fractions of water-based polyurethane paint (Rust-Oleum 6711). Pigment-free samples were prepared as controls. After mixing, these samples were centrifuged (15,000 g, 5 minutes), and imaged using a camera (FIG. 1D).

The nature of data set [2]: solubility of xanthommatin in carrier liquids (water, MES buffer). The settings on record: oxidized xanthommatin.
Data set [3] in a line: pH-dependent xanthommatin solubility in water. As to conditions: solid pigment suspended in acidic to alkaline water (pH 2-12), agitation, then centrifugation. How it is done: Evaluation of pH-dependent xanthommatin solubility: Fractions of solid xanthommatin corresponding to 1 mg of starting material were dispersed in 1 mL of filtered water adjusted to pH 2.01, 4.00, 6.00, 7.00, 8.01, 10.01, or 12.00. Samples were mixed by pipetting, centrifuged at 15,000 g for 5 minutes, and imaged with a camera to record the mass of undissolved material (FIG. 1C, top panel). Each sample was then diluted to 1.5 mL with water adjusted to its respective pH, mixed by vortexing, sonicated for 5 minutes, centrifuged at 15,000 g for 5 minutes, and imaged again (FIG. 1C, bottom panel).

Take `NC(CC(=O)c1cccc2oc3cc(=O)c4[nH]c(C(=O)O)cc(=O)c4c-3nc12)C(=O)O` (centres unmarked) [xanthommatin, 11-(3-amino-3-carboxypropanoyl)-1,5-dioxo-4H-pyrido[3,2-a]phenoxazine-3-carboxylic acid]: in data set [1], the “solubility in water-based polyurethane paint base” value is “fully soluble”. In addition, the “solubility in MES buffer (carrier liquid)” value in data set [2] (MES buffer) is given as “fully soluble”. The “solubility in water (carrier liquid)” value in data set [2] (water) is “only slightly soluble”. Moreover, the “solubility in water, acidic conditions” value in data set [3] (acidic conditions) was “sparingly soluble/insoluble”. For the same molecule, the “solubility in water, basic conditions” value in data set [3] (basic conditions) is on record as “most soluble”.

The values above are taken from patent US20250320362A1, “Suspensions and Solutions of Dyes For Colored Coatings” (Northeastern University, priority 2022, published 2025).
